Measurements reported in US9375005B2, “5-halogenopyrazole indanyl carboxamides” (BAYER CROPSCIENCE AG, priority 2012, dated 2016).

What was measured:
Alternaria brassicae = assay: In vivo preventive test on Alternaria brassicae (leaf spot on radish); conditions: dose 500 ppm; radish plants sprayed 24 h before contamination; grading 6 days after contamination vs control plants
Protocol: Radish plants (“Pernod Clair” variety), sown in starter cups on a 50/50 peat soil-pozzolana substrate and grown at 17° C., are treated at the cotyledon stage by spraying with the active ingredient prepared as described above. Plants, used as controls, are treated with the mixture of acetone/tween/DMSO/water not containing the active material. After 24 hours, the plants are contaminated by spraying the cotyledons with an aqueous suspension of Alternaria brassicae spores (50 000 spores per ml). The spores are collected from a 15-day-old culture. […] Grading (% of efficacy) is carried out 6 days after the contamination, in comparison with the control plants.

Puccinia recondita = assay: In vivo preventive test on Puccinia recondita (brown rust on wheat); conditions: wheat plants sprayed 24 h before contamination, grading 12 days after contamination
Protocol: Plants, used as controls, are treated with the mixture of acetone/tween/DMSO/water not containing the active material. After 24 hours, the plants are contaminated by spraying the leaves with an aqueous suspension of Puccinia recondita spores (100 000 spores per ml). […] Grading (% of efficacy) is carried out 12 days after the contamination, in comparison with the control plants.

Pyrenophora teres = assay: In vivo preventive test on Pyrenophora teres (net blotch on barley); conditions: barley plants sprayed 24 h before contamination, grading 14 days after contamination
Protocol: Barley plants (“Plaisant” variety), sown in starter cups on a 50/50 peat soil-pozzolana substrate and grown at 22° C., are treated at the 1-leaf stage (10 cm height) by spraying with the active ingredient prepared as described above. Plants, used as controls, are treated with the mixture of acetone/tween/DMSO/water not containing the active material. After 24 hours, the plants are contaminated by spraying the leaves with an aqueous suspension of Pyrenophora teres spores (12 000 spores per ml). The spores are collected from a 12-day-old culture. […] Grading (% of efficacy) is carried out 14 days after the contamination, in comparison with the control plants.

Uromyces appendiculatus = assay: In vivo preventive test on Uromyces appendiculatus (bean rust); conditions: bean plants sprayed 24 h before contamination, grading 11 days after contamination
Protocol: Bean plants (“Saxa” variety), sown in starter cups on a 50/50 peat soil-pozzolana substrate and grown at 24° C., are treated at the 2-leaf stage (9 cm height) by spraying with the active ingredient prepared as described above. Plants, used as controls, are treated with the mixture of acetone/tween/DMSO/water not containing the active material. After 24 hours, the plants are contaminated by spraying the leaves with an aqueous suspension of Uromyces appendiculatus spores (150 000 spores per ml). […] Grading (% of efficacy) is carried out 11 days after the contamination, in comparison with the control plants.

[1] = Measurement of log P values by HPLC on reversed phase columns (EEC directive 79/831 Annex V.A8); assay type: physicochemical
Sphaerotheca fuliginea = assay: In vivo preventive test on Sphaerotheca fuliginea (powdery mildew on cucurbits); conditions: gherkin plants sprayed 24 h before contamination, grading 12 days after contamination
Protocol: Gherkin plants (“Vert petit de Paris” variety), sown in starter cups on a 50/50 peat soil-pozzolana substrate and grown at 24° C., are treated at the Z11 cotyledon stage by spraying with the active ingredient prepared as described above. Plants, used as controls, are treated with the mixture of acetone/tween/DMSO/water not containing the active material. After 24 hours, the plants are contaminated by spraying the cotyledons with an aqueous suspension of Sphaerotheca fuliginea spores (100 000 spores per ml). The spores are collected from infected plants. The contaminated to gherkin plants are incubated at about 20° C. and at 70-80% relative humidity. Grading (% of efficacy) is carried out 12 days after the contamination, in comparison with the control plants.

| logP ([1]; method marked [a]) | logP ([1]; method marked [b]) | SMILES | Eff. % (Alternaria brassicae) [%] | Eff. % (Puccinia recondita; dose 500 ppm) [%] | Eff. % (Pyrenophora teres; dose 500 ppm) [%] | Eff. % (Uromyces appendiculatus; dose 500 ppm) [%] | Eff. % (Sphaerotheca fuliginea; dose 500 ppm) [%] | Eff. % (Pyrenophora teres; dose 100 ppm) [%] | Eff. % (Puccinia recondita; dose 100 ppm) [%] | Eff. % (Sphaerotheca fuliginea; dose 100 ppm) [%] | Eff. % (Uromyces appendiculatus; dose 100 ppm) [%] |
| --- | --- | --- | --- | --- | --- | --- | --- | --- | --- | --- | --- |
| 3.58[a] |  | Cn1nc(C(F)F)c(C(=O)Nc2cccc3c2CCC32CC2)c1Cl [Example 14] | 97 | 100 |  | 100 |  |  |  |  |  |
| 4.44[a] |  | Cn1nc(C(F)F)c(C(=O)Nc2cccc3c2CC2(CCCC2)C3)c1Cl [Example 15] |  | 100 | 71 | 100 |  |  |  |  |  |
| 3.52[a] |  | CCCON=C1CCc2c(NC(=O)c3c(C(F)F)nn(C)c3F)cccc21 [Example 28] | 71 |  |  |  |  |  |  |  |  |
| 4.77[a]; | 4.68[b] | CC1CC(C)(C)c2c(Br)ccc(NC(=O)c3c(C(F)F)nn(C)c3Cl)c21 (stereo not drawn) [Example 36] |  |  | 75 | 77 |  |  |  |  |  |
| 4.59[a] |  | CC(C)CC1CCc2c(NC(=O)c3c(C(F)F)nn(C)c3F)cccc21 (stereo not drawn) [Example 41] | 95 | 97 |  | 100 |  |  |  |  |  |
| 4.03[a] |  | CC1CC(C)(C)c2cccc(NC(=O)c3c(C(F)F)nn(C)c3Br)c21 (stereo not drawn) [Example 42] |  | 100 |  | 100 | 100 |  |  |  |  |
| 4.64[a] |  | Cn1nc(C(F)F)c(C(=S)Nc2cccc3c2CCC3C(C)(C)C)c1Cl (stereo not drawn) [Example 74] |  | 100 |  | 100 | 98 |  |  |  |  |
| 4.19[a] |  | CC1c2cccc(NC(=O)c3c(C(F)F)nn(C)c3Cl)c2CC1(C)C (stereo not drawn) [Example 77] |  | 100 |  | 100 | 98 |  |  |  |  |
| 4.98[a] |  | CC(C)CC1CC(C)c2c(NC(=O)c3c(C(F)F)nn(C)c3Cl)cccc21 (stereo not drawn) [Example 79] |  | 94 | 92 | 100 |  |  |  |  |  |
| 3.92[a] |  | CCCON=C1CC(C)c2c(NC(=O)c3c(C(F)F)nn(C)c3Cl)cccc21 (stereo not drawn) [Example 84] |  | 81 | 75 |  |  |  |  |  |  |
| 4.2[a] |  | CC1c2c(NC(=O)c3c(C(F)F)nn(C)c3Cl)cccc2C(C)(C)C1C (stereo not drawn) [Example 85] |  | 98 | 92 | 99 |  |  |  |  |  |
| 4.9[a] |  | CC(C)C1Cc2c(NC(=S)c3c(C(F)F)nn(C)c3Cl)cccc2C1(C)C (stereo not drawn) [Example 92] |  |  |  |  |  | 70 | 94 | 100 | 100 |
| 4.76[a] |  | CC(C)C1Cc2c(NC(=S)c3c(C(F)F)nn(C)c3F)cccc2C1(C)C (stereo not drawn) [Example 95] |  |  |  |  |  | 70 | 98 | 100 | 100 |
| 4.87[a] |  | CC(C)C1Cc2c(NC(=S)c3c(C(F)F)nn(C)c3Br)cccc2C1(C)C (stereo not drawn) [Example 102] |  |  |  |  |  |  | 94 |  | 100 |
| 4.88[a] |  | CC1CC2(CCCCC2)c2cccc(NC(=S)c3c(C(F)F)nn(C)c3F)c21 (stereo not drawn) [Example 104] |  |  |  |  |  |  | 100 | 100 | 100 |
| 4.58[a] |  | CCC1Cc2c(NC(=S)c3c(C(F)F)nn(C)c3Cl)cccc2C1(C)C (stereo not drawn) [Example 105] |  |  |  |  |  | 70 | 100 | 94 | 100 |
| 4.46[a] |  | CCC1Cc2c(NC(=S)c3c(C(F)F)nn(C)c3F)cccc2C1(C)C (stereo not drawn) [Example 106] |  |  |  |  |  | 80 | 100 | 89 | 94 |
| 5.01[a] |  | CC1CC2(CCCCC2)c2cccc(NC(=S)c3c(C(F)F)nn(C)c3Cl)c21 (stereo not drawn) [Example 108] |  |  |  |  |  |  | 90 |  | 100 |
| 3.52[a] |  | CC1CCc2c(NC(=O)c3c(C(F)F)nn(C)c3Cl)cccc21 (stereo not drawn) [Example 109] |  |  |  |  |  |  | 94 |  | 99 |

Continued, molecule first:

| SMILES | logP ([1]; method marked [a]) | logP ([1]; method marked [b]) | Eff. % (Alternaria brassicae) [%] | Eff. % (Puccinia recondita; dose 500 ppm) [%] | Eff. % (Pyrenophora teres; dose 500 ppm) [%] | Eff. % (Uromyces appendiculatus; dose 500 ppm) [%] | Eff. % (Sphaerotheca fuliginea; dose 500 ppm) [%] | Eff. % (Pyrenophora teres; dose 100 ppm) [%] | Eff. % (Puccinia recondita; dose 100 ppm) [%] | Eff. % (Sphaerotheca fuliginea; dose 100 ppm) [%] | Eff. % (Uromyces appendiculatus; dose 100 ppm) [%] |
| --- | --- | --- | --- | --- | --- | --- | --- | --- | --- | --- | --- |
| CON=C1c2cccc(NC(=O)c3c(C(F)F)nn(C)c3F)c2CC1(C)C (mixture of isomers) [Example 61] |  |  | 75 | 86 |  |  |  |  |  |  |  |
| CCC1(C)CCc2c(NC(=O)c3c(C(F)F)nn(C)c3Cl)cccc21 (single isomer, unassigned) [Example 52] | 4.31[a] |  |  | 98 | 80 | 100 |  |  |  |  |  |
| CC1Cc2cccc(NC(=O)c3c(C(F)F)nn(C)c3F)c2C1 (stereo not drawn) [Example 7] | 3.31[a] |  |  | 98 |  | 100 | 78 |  |  |  |  |
| CC1CC(C)(C)c2c(Cl)ccc(NC(=O)c3c(C(F)F)nn(C)c3Cl)c21 (stereo not drawn) [Example 12] | 4.6[a]; | 4.53[b] | 94 | 93 |  | 96 |  |  |  |  |  |
| CC1CC(C)(C)c2c(I)ccc(NC(=O)c3c(C(F)F)nn(C)c3Cl)c21 (stereo not drawn) [Example 20] | 4.91[a]; | 4.89[b] |  | 98 | 97 | 99 |  |  |  |  |  |
| CC(C)C1Cc2c(NC(=O)c3c(C(F)F)nn(C)c3Cl)cccc2C1C (stereo not drawn) [Example 21] | 4.69[a] |  |  | 98 |  | 100 | 89 |  |  |  |  |
| CCCCON=C1CCc2c(NC(=O)c3c(C(F)F)nn(C)c3Cl)cccc21 [Example 22] | 4.24[a] |  | 86 |  |  |  |  |  |  |  |  |
| CCON=C1CCc2c(NC(=O)c3c(C(F)F)nn(C)c3Cl)cccc21 [Example 26] | 3.27[a] |  | 72 | 94 |  | 100 |  |  |  |  |  |
| CC(C)CC1CCc2c(NC(=O)c3c(C(F)F)nn(C)c3Cl)cccc21 (stereo not drawn) [Example 40] | 4.87[a] |  | 97 | 100 | 80 | 100 |  |  |  |  |  |
| CC1CC(C)(C)c2c(Br)ccc(NC(=S)c3c(C(F)F)nn(C)c3F)c21 (stereo not drawn) [Example 55] | 4.64[a]; | 4.49[b] |  | 94 | 75 | 70 |  |  |  |  |  |
| Cn1nc(C(F)F)c(C(=O)Nc2cccc3c2CC(C2CCCC2)C3)c1Cl (stereo not drawn) [Example 57] | 5.03[a] |  |  | 94 | 97 | 100 |  |  |  |  |  |
| CC(C)CC1CCc2c(NC(=O)c3c(C(F)F)nn(C)c3Cl)cccc21 (stereo not drawn) [Example 66] |  |  | 97 | 100 | 80 | 100 |  |  |  |  |  |
| CCON=C1CC(C)c2c(NC(=O)c3c(C(F)F)nn(C)c3Cl)cccc21 (stereo not drawn) [Example 82] | 3.42[a] |  |  | 88 | 75 | 99 |  |  |  |  |  |
| CCON=C1CC(C)c2c(NC(=O)c3c(C(F)F)nn(C)c3F)cccc21 (stereo not drawn) [Example 83] | 3.18[a] |  | 86 | 88 | 83 | 95 |  |  |  |  |  |
| CC1CC(CC(C)(C)C)c2cccc(NC(=S)c3c(C(F)F)nn(C)c3Cl)c21 (stereo not drawn) [Example 98] | 5.31[a] |  |  | 98 |  | 100 | 98 |  |  |  |  |
| CC(C)CC1CC(C)c2c(NC(=O)c3c(C(F)F)nn(C)c3Cl)cccc21 (stereo not drawn) [Example 99] | 5.01[a] |  |  |  |  |  |  |  | 100 |  | 100 |
| CC1CC2(CCCCC2)c2cccc(NC(=O)c3c(C(F)F)nn(C)c3Cl)c21 (stereo not drawn) [Example 110] | 5.01[a] |  |  |  |  |  |  |  | 83 |  | 99 |
| CC1CC2(CCCC2)c2cccc(NC(=O)c3c(C(F)F)nn(C)c3Cl)c21 (stereo not drawn) [Example 111] | 4.64[a] |  |  |  |  |  |  |  | 98 |  | 100 |
